Results: the NIST ThermoML archive (doi:10.1021/je700406p)
± gives the expanded uncertainty stated by the source.

Experiment: wn = mass fraction of the nth substance listed
Conditions: Liquid, Vibrating tube method

CC(C)(N)CO [2-amino-2-methylpropan-1-ol] + O
Conditions | mass density [kg/m3]
323.09 K, 19985 kPa, w1 = 0.4976 | 978 ± 1.3
323.09 K, 20939 kPa, w1 = 0.4976 | 978.4 ± 1.3
323.1 K, 513 kPa, w1 = 0.1997 | 984.2 ± 0.5
323.1 K, 1002 kPa, w1 = 0.4002 | 978 ± 0.9
323.1 K, 1007 kPa, w1 = 0.1997 | 984.4 ± 0.5
323.1 K, 2005 kPa, w1 = 0.1997 | 984.8 ± 0.5
323.1 K, 2023 kPa, w1 = 0.4002 | 978.4 ± 0.9
323.1 K, 3001 kPa, w1 = 0.4002 | 978.9 ± 0.9
323.1 K, 3005 kPa, w1 = 0.1997 | 985.1 ± 0.5
323.1 K, 4001 kPa, w1 = 0.1997 | 985.5 ± 0.5
323.1 K, 4011 kPa, w1 = 0.4002 | 979.2 ± 0.9
323.1 K, 5000 kPa, w1 = 0.1997 | 986 ± 0.5
323.1 K, 5000 kPa, w1 = 0.4002 | 979.7 ± 0.9
323.1 K, 6002 kPa, w1 = 0.4002 | 980 ± 0.9
323.1 K, 6003 kPa, w1 = 0.1997 | 986.3 ± 0.5
323.1 K, 6999 kPa, w1 = 0.4002 | 980.4 ± 0.9
323.1 K, 7003 kPa, w1 = 0.1997 | 986.8 ± 0.5
323.1 K, 7990 kPa, w1 = 0.4002 | 980.8 ± 0.9
323.1 K, 8001 kPa, w1 = 0.1997 | 987.1 ± 0.5
323.1 K, 9002 kPa, w1 = 0.4002 | 981.2 ± 0.9
323.1 K, 9013 kPa, w1 = 0.1997 | 987.5 ± 0.5
323.1 K, 9990 kPa, w1 = 0.4002 | 981.6 ± 0.9
323.1 K, 10002 kPa, w1 = 0.1997 | 987.9 ± 0.5
323.1 K, 10992 kPa, w1 = 0.4002 | 982 ± 0.9
323.1 K, 11001 kPa, w1 = 0.1997 | 988.3 ± 0.5
323.1 K, 11996 kPa, w1 = 0.4002 | 982.5 ± 0.9
323.1 K, 12004 kPa, w1 = 0.1997 | 988.7 ± 0.5
323.1 K, 12990 kPa, w1 = 0.4002 | 982.8 ± 0.9
323.1 K, 13009 kPa, w1 = 0.1997 | 989 ± 0.5
323.1 K, 13994 kPa, w1 = 0.4002 | 983.2 ± 0.9
323.1 K, 13999 kPa, w1 = 0.1997 | 989.4 ± 0.5
323.1 K, 14992 kPa, w1 = 0.4002 | 983.6 ± 0.9
323.1 K, 15001 kPa, w1 = 0.1997 | 989.8 ± 0.5
323.1 K, 15995 kPa, w1 = 0.4002 | 984 ± 0.9
323.1 K, 16002 kPa, w1 = 0.1997 | 990.2 ± 0.5
323.1 K, 16986 kPa, w1 = 0.4002 | 984.4 ± 0.9
323.1 K, 17001 kPa, w1 = 0.1997 | 990.6 ± 0.5
323.1 K, 17993 kPa, w1 = 0.4002 | 984.8 ± 0.9
323.1 K, 18004 kPa, w1 = 0.1997 | 991 ± 0.5
323.1 K, 18995 kPa, w1 = 0.4002 | 985.1 ± 0.9
323.1 K, 19000 kPa, w1 = 0.1997 | 991.4 ± 0.5
323.1 K, 19992 kPa, w1 = 0.4002 | 985.5 ± 0.9
323.1 K, 20030 kPa, w1 = 0.1997 | 991.7 ± 0.5
323.1 K, 21005 kPa, w1 = 0.1997 | 992.1 ± 0.5
323.1 K, 21297 kPa, w1 = 0.4002 | 986 ± 0.9
323.1 K, 22004 kPa, w1 = 0.1997 | 992.5 ± 0.5
323.1 K, 22998 kPa, w1 = 0.1997 | 992.9 ± 0.5
323.1 K, 24004 kPa, w1 = 0.1997 | 993.3 ± 0.5
332.01 K, 1005 kPa, w1 = 0.2821 | 976.1 ± 0.6
332.01 K, 2004 kPa, w1 = 0.2821 | 976.5 ± 0.6
332.01 K, 2997 kPa, w1 = 0.2821 | 977 ± 0.6
332.01 K, 4002 kPa, w1 = 0.2821 | 977.4 ± 0.6
332.01 K, 5002 kPa, w1 = 0.2821 | 977.8 ± 0.6
332.01 K, 5997 kPa, w1 = 0.2821 | 978.2 ± 0.6
332.01 K, 6999 kPa, w1 = 0.2821 | 978.6 ± 0.6
332.01 K, 7996 kPa, w1 = 0.2821 | 979 ± 0.6
332.01 K, 8992 kPa, w1 = 0.2821 | 979.4 ± 0.6
332.01 K, 9994 kPa, w1 = 0.2821 | 979.8 ± 0.6
332.01 K, 11040 kPa, w1 = 0.2821 | 980.2 ± 0.6
332.01 K, 11992 kPa, w1 = 0.2821 | 980.6 ± 0.6
332.01 K, 12990 kPa, w1 = 0.2821 | 981 ± 0.6
332.01 K, 13989 kPa, w1 = 0.2821 | 981.4 ± 0.6
332.01 K, 14989 kPa, w1 = 0.2821 | 981.8 ± 0.6
332.01 K, 15990 kPa, w1 = 0.2821 | 982.2 ± 0.6
332.01 K, 17000 kPa, w1 = 0.2821 | 982.5 ± 0.6
332.01 K, 17987 kPa, w1 = 0.2821 | 982.9 ± 0.6
332.01 K, 18991 kPa, w1 = 0.2821 | 983.3 ± 0.6
332.01 K, 19984 kPa, w1 = 0.2821 | 983.7 ± 0.6
332.01 K, 20986 kPa, w1 = 0.2821 | 984.1 ± 0.6
332.99 K, 503 kPa, w1 = 0.1997 | 978.2 ± 0.5
332.99 K, 1000 kPa, w1 = 0.1997 | 978.5 ± 0.5
332.99 K, 2000 kPa, w1 = 0.1997 | 978.7 ± 0.5
332.99 K, 3000 kPa, w1 = 0.1997 | 979.2 ± 0.5
332.99 K, 4000 kPa, w1 = 0.1997 | 979.6 ± 0.5
332.99 K, 5001 kPa, w1 = 0.1997 | 979.9 ± 0.5
332.99 K, 6000 kPa, w1 = 0.1997 | 980.4 ± 0.5
332.99 K, 7001 kPa, w1 = 0.1997 | 980.8 ± 0.5
332.99 K, 8001 kPa, w1 = 0.1997 | 981.2 ± 0.5
332.99 K, 9009 kPa, w1 = 0.1997 | 981.5 ± 0.5
332.99 K, 10003 kPa, w1 = 0.1997 | 982 ± 0.5
332.99 K, 11001 kPa, w1 = 0.1997 | 982.3 ± 0.5
332.99 K, 12000 kPa, w1 = 0.1997 | 982.8 ± 0.5
332.99 K, 13000 kPa, w1 = 0.1997 | 983.2 ± 0.5
332.99 K, 14000 kPa, w1 = 0.1997 | 983.6 ± 0.5
332.99 K, 14999 kPa, w1 = 0.1997 | 984 ± 0.5
332.99 K, 16001 kPa, w1 = 0.1997 | 984.3 ± 0.5
332.99 K, 17001 kPa, w1 = 0.1997 | 984.8 ± 0.5
332.99 K, 18006 kPa, w1 = 0.1997 | 985.2 ± 0.5
332.99 K, 19001 kPa, w1 = 0.1997 | 985.5 ± 0.5
332.99 K, 20029 kPa, w1 = 0.1997 | 985.9 ± 0.5
332.99 K, 21005 kPa, w1 = 0.1997 | 986.3 ± 0.5
332.99 K, 22004 kPa, w1 = 0.1997 | 986.7 ± 0.5
332.99 K, 23000 kPa, w1 = 0.1997 | 987 ± 0.5
332.99 K, 24008 kPa, w1 = 0.1997 | 987.4 ± 0.5
333.04 K, 1029 kPa, w1 = 0.4976 | 961.9 ± 1.2
333.04 K, 1994 kPa, w1 = 0.4976 | 962.4 ± 1.2
333.04 K, 3005 kPa, w1 = 0.4976 | 962.8 ± 1.2
333.04 K, 4012 kPa, w1 = 0.4976 | 963.3 ± 1.2
333.04 K, 4995 kPa, w1 = 0.4976 | 963.7 ± 1.3
333.04 K, 5995 kPa, w1 = 0.4976 | 964.1 ± 1.3
333.04 K, 7056 kPa, w1 = 0.4976 | 964.6 ± 1.3
333.04 K, 7994 kPa, w1 = 0.4976 | 965 ± 1.3
333.04 K, 8994 kPa, w1 = 0.4976 | 965.5 ± 1.3
333.04 K, 9997 kPa, w1 = 0.4976 | 965.9 ± 1.3
333.04 K, 10996 kPa, w1 = 0.4976 | 966.3 ± 1.3
333.04 K, 11991 kPa, w1 = 0.4976 | 966.7 ± 1.3
333.04 K, 12988 kPa, w1 = 0.4976 | 967.2 ± 1.3
333.04 K, 13992 kPa, w1 = 0.4976 | 967.6 ± 1.3
333.04 K, 14999 kPa, w1 = 0.4976 | 968 ± 1.3
333.04 K, 15982 kPa, w1 = 0.4976 | 968.4 ± 1.3
333.04 K, 16996 kPa, w1 = 0.4976 | 968.9 ± 1.3
333.04 K, 17988 kPa, w1 = 0.4976 | 969.3 ± 1.3
333.04 K, 18986 kPa, w1 = 0.4976 | 969.7 ± 1.3
333.04 K, 19987 kPa, w1 = 0.4976 | 970.1 ± 1.3
333.04 K, 21093 kPa, w1 = 0.4976 | 970.6 ± 1.3
333.05 K, 1028 kPa, w1 = 0.4002 | 970.4 ± 0.9
333.05 K, 1998 kPa, w1 = 0.4002 | 970.8 ± 0.9
333.05 K, 3001 kPa, w1 = 0.4002 | 971.2 ± 0.9
333.05 K, 4010 kPa, w1 = 0.4002 | 971.6 ± 0.9
333.05 K, 5003 kPa, w1 = 0.4002 | 972.1 ± 0.9
333.05 K, 5997 kPa, w1 = 0.4002 | 972.5 ± 0.9
333.05 K, 7000 kPa, w1 = 0.4002 | 972.9 ± 0.9
333.05 K, 8010 kPa, w1 = 0.4002 | 973.3 ± 0.9
333.05 K, 8996 kPa, w1 = 0.4002 | 973.7 ± 0.9
333.05 K, 9998 kPa, w1 = 0.4002 | 974.2 ± 0.9
333.05 K, 10998 kPa, w1 = 0.4002 | 974.6 ± 0.9
333.05 K, 12011 kPa, w1 = 0.4002 | 975 ± 0.9
333.05 K, 13000 kPa, w1 = 0.4002 | 975.4 ± 0.9
333.05 K, 13987 kPa, w1 = 0.4002 | 975.8 ± 0.9
